One test has as its system COLO320DM cells. Put plainly: Cell viability assay, COLO320DM. The note with it: Homo sapiens, COLO 320DM; COLO320DM colorectal cancer. The class given is cell-based.
Test [1] relates to S6K pre-mRNA splicing in MDA-MB-468 cells. Kind of test: S6K pre-mRNA splicing alteration (quantitative RT-PCR), MDA-MB-468. The class given is cell-based, human. The note with it: for Rc0.1: MDA-MB-468, concentration at which ratio of copy number of S6K exons 6–8 to S6K exons 6–7 is 0.1; for concentration at which expression level of the alternatively spliced S6K mRNAs was highest: MDA-MB-468, 6 h, S6K exons 6–8 (exon 7 skipped). From the text:
To examine whether inhibition of a particular CLK and/or SRPK contributed to the alternative splicing of S6K pre-mRNA, we used an additional series of compounds with the same scaffold as Cpd-1, Cpd-2, and Cpd-3, but different selectivity. First, we examined the correlation between the enzymatic activity and the level of splicing alterations of S6K pre-mRNA for the individual compounds. We used the exon 7-skipped type of S6K variant to calibrate Rc0.1 values, i.e., the concentrations that induced 10% of the copy number of an alternative isoform compared with that of the canonical isoform. The inhibition of CLK1 and CLK2 activities was correlated with the splicing alteration activities (Rc0.1) (R^2 = 0.3353 and 0.4255, respectively). In contrast, there was no correlation between the activities of SRPKs and the Rc0.1 values (R^2 < 0.0468) (Fig. 3A). Next, we compared the levels of splicing alteration and growth inhibition of the compounds. […] Similar correlations between Rc0.1 and GI50 values were also obtained in seven different cancer cell lines after treatment with Cpd-2 or Cpd-3 (Table 2).
Total RNA was extracted using an RNeasy Miniprep Kit (Qiagen, Valencia, CA) in accordance with the manufacturer’s instructions. Reverse transcription was performed using a TaqMan Reverse Transcription Reagents Kit (Applied Biosystems, Carlsbad, CA). The PCR conditions were as follows: one cycle of 5 min at 95°C; 35 cycles of 30 s at 94°C, 30 s at 60°C, and 30 s at 72°C; and one cycle of 10 min at 72°C. The PCR products were separated in 2% agarose gels. Real-time PCR was performed using a TaqMan MGB probe (Applied Biosystems), and the amount of FAM fluorescence was measured as a function of the PCR cycle number (CT) using an ABI 7900 Real-time PCR System (Applied Biosystems). The expression level of each mRNA was normalized by that of GAPDH mRNA.

A further test has as its system MDA-MB-468 cells. Kind of test: Cell viability assay (CellTiter-Glo), MDA-MB-468. The class given is cell-based. The note with it: Homo sapiens; MDA-MB-468 breast cancer, 72 h. The method, then: MDA-MB-468 cells (5 × 10^3) were seeded into 96-well plates and incubated overnight in 50 μL of culture medium. Next, 50 µL of each compound diluted in culture medium was added to the wells. After 72 h of incubation, viability was determined using the CellTiter-Glo Luminescent Cell Viability Assay (Promega) according to the manufacturer’s instructions. The GI50 values were calculated using GraphPad Prism 5 software with a sigmoid dose-response curve.
On the technique in general: In ATP-based viability assays light output follows the ATP content of the culture.

A further test addresses Aurora kinase A (Homo sapiens, UniProt O14965). Put plainly: Kinase panel assay (Z'-LYTE, SelectScreen), Aurora kinase A. The class given is biochemical. The note with it: 1 μM compound, 100 μM ATP; among kinases inhibited by more than 50%. As to the method: Kinase panel assays were performed using the FRET-based Z’- LYTE enzymatic kinase assay system (Life Technologies, Carlsbad, CA), which was carried out using the SelectScreen Kinase Profiling Service (Life Technologies). The standard reaction contained 2 μM peptide substrate, 100 μM ATP, 50 mM HEPES (pH 7.5), 0.01% Brij-35, 10 mM MgCl2, 1 mM EGTA, and each kinase. Cpd-1, Cpd-2, and Cpd-3 at two point concentration (100 and 1000 nM) with duplicate data points (n = 2) were assayed following the detailed procedures outlined in the SelectScreen. The full assay protocol and conditions can be obtained at www.lifetechnologies.com. Percent inhibition represents a ratio of phosphorylated product formed in the presence of the compound compared with phosphorylated product formed in reactions containing 1% DMSO. Inhibition data indicates the mean value of kinase inhibition from duplicate data.

Another test has as its target T1, CLK2 (Homo sapiens, UniProt P49760).
T1 construct: purchased Life Technologies
Kind of test: In vitro kinase assay (LANCE Ultra), CLK2. The class given is biochemical. The note with it: for IC50: 20 µM ATP; for activity for CLK2 relative to Cpd-1: stronger than Cpd-1. The method, then:
The ATP concentration for each assay was adjusted to the Km for each kinase. Kinase assays for SRPK1–3 and CLK1 were performed using the ADP-Glo™ assay (Promega, Madison, WI). The kinase buffer contained 25 mM HEPES (pH 7.5), 10 mM magnesium acetate, 1 mM DTT, 0.01% BSA, and 0.01% Tween-20. The reaction mixtures contained 50 ng/mL SRPK1, 100 ng/mL SRPK2 or SRPK3, or 300 ng/mL CLK1 and 3 μM substrate peptide [GRSRSRSRSRSRSRSR] (Thermo Scientific). After incubating the enzyme, peptide, and compounds for 10 min, kinase reactions were initiated by adding ATP to a final concentration of 5 µM, followed by incubation for 30 min (15 min for SRPK1). The kinase reactions were terminated by adding ADP-Glo™ reagent (Promega). ADP was detected using a kinase detection reagent (Promega). The kinase activity of CLK2 was measured using the LANCE® Ultra assay (Perkin-Elmer, Waltham, MA) with ADP-Glo assay buffer. The reaction mixtures contained 100 ng/mL CLK2 and 50 nM ULight™-myelin basic protein (MBP) peptide (Perkin-Elmer). After incubating the enzyme, peptide, and compounds for 5 min, kinase reactions were initiated by adding ATP to a final concentration of 20 μM, followed by incubation for 30 min. The enzyme reactions were terminated by adding 30 mM EDTA, and phosphorylated ULight-MBP peptides were detected using a europium-labeled anti-phospho-MBP antibody diluted with detection buffer (Perkin-Elmer). The plates were read using an EnVision 2102 multilabel reader (Perkin-Elmer). We defined the absorbance of the reaction without enzyme as 100% inhibitory activity and that of the complete reaction mixture as 0% inhibitory activity. The IC50 values were estimated using the “Sigmoidal dose-response (variable slope)” equation in GraphPad Prism 5 software (GraphPad Software, San Diego, CA), with the maximum and minimum of the curve constrained to 100 and 0, respectively.
For orientation: In TR-FRET formats the signal depends on donor and acceptor labels being close together.

The target in a further test is T2, SRPK3 (Homo sapiens, UniProt Q9UPE1).
T2 construct: purchased Millipore
T2 sequence (Q9UPE1 whole entry): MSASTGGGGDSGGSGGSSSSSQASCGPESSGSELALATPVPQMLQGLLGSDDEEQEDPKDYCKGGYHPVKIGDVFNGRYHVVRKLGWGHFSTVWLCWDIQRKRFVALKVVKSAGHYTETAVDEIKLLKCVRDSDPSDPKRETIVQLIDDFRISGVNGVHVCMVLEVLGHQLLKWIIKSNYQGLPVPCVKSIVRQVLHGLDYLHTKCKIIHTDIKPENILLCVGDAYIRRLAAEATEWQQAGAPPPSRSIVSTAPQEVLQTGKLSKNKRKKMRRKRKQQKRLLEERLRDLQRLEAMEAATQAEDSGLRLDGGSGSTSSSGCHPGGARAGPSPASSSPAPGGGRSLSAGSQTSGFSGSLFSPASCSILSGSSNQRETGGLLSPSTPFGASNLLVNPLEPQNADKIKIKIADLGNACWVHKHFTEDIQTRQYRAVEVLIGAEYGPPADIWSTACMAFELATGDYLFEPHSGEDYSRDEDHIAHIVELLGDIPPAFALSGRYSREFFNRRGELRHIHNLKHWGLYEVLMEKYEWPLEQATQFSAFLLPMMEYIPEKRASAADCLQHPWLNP
Kind of test: In vitro kinase assay (ADP-Glo), SRPK3. The class given is biochemical. The note with it: 5 µM ATP. The method, then: The ATP concentration for each assay was adjusted to the Km for each kinase. Kinase assays for SRPK1–3 and CLK1 were performed using the ADP-Glo™ assay (Promega, Madison, WI). The kinase buffer contained 25 mM HEPES (pH 7.5), 10 mM magnesium acetate, 1 mM DTT, 0.01% BSA, and 0.01% Tween-20. The reaction mixtures contained 50 ng/mL SRPK1, 100 ng/mL SRPK2 or SRPK3, or 300 ng/mL CLK1 and 3 μM substrate peptide [GRSRSRSRSRSRSRSR] (Thermo Scientific). After incubating the enzyme, peptide, and compounds for 10 min, kinase reactions were initiated by adding ATP to a final concentration of 5 µM, followed by incubation for 30 min (15 min for SRPK1). The kinase reactions were terminated by adding ADP-Glo™ reagent (Promega). ADP was detected using a kinase detection reagent (Promega). The kinase activity of CLK2 was measured using the LANCE® Ultra assay (Perkin-Elmer, Waltham, MA) with ADP-Glo assay buffer. […] The enzyme reactions were terminated by adding 30 mM EDTA, and phosphorylated ULight-MBP peptides were detected using a europium-labeled anti-phospho-MBP antibody diluted with detection buffer (Perkin-Elmer). The plates were read using an EnVision 2102 multilabel reader (Perkin-Elmer). We defined the absorbance of the reaction without enzyme as 100% inhibitory activity and that of the complete reaction mixture as 0% inhibitory activity. […]
In general terms: In ADP-Glo the light output rises with the ADP produced.

T1 sequence (P49760 whole entry): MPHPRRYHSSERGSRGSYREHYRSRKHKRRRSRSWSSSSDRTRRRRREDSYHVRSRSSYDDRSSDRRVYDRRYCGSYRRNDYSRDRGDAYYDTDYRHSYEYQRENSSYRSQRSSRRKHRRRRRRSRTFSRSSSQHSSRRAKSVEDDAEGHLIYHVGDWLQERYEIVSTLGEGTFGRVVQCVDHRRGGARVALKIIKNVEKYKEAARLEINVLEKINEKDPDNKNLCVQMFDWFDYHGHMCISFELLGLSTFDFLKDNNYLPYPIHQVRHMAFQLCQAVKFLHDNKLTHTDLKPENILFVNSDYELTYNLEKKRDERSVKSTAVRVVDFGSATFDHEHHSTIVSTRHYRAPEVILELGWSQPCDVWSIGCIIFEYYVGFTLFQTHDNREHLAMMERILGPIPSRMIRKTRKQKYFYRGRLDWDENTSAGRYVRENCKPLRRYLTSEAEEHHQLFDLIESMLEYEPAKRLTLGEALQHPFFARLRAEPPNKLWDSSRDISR
Sequence of Aurora kinase A (O14965 whole entry): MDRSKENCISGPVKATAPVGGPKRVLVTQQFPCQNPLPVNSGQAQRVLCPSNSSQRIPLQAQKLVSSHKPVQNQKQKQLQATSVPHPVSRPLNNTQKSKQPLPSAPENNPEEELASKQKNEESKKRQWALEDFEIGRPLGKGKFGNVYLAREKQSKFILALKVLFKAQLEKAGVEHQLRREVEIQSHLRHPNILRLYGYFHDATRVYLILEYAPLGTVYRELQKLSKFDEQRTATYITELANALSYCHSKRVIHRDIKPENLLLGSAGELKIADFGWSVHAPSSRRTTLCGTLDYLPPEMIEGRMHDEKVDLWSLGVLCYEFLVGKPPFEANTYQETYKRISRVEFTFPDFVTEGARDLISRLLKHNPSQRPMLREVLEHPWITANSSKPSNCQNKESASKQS

For `CC(C)(CCc1nnn[nH]1)c1ccc(C(=O)Nc2cn3cc(C(F)(F)F)ccc3n2)cc1` [Cpd-1, 4-(2-methyl-4-(1H-tetrazol-5-yl)butan-2-yl)-N-(6-(trifluoromethyl)imidazo[1,2-a]pyridin-2-yl)benzamide], the GI50 stood at 43000 nM in the test with COLO320DM cells and 30500 nM in the test on MDA-MB-468 cells. Moreover, the Rc0.1 in test [1] amounted to 8.6 µM. Moreover, the “inhibition of Aurora kinase A in kinase panel” value at Aurora kinase A is recorded as “moderately inhibited”. In addition, on CLK2, the IC50 was found to be 45 nM.

`CC(C)(C)c1ccc(C(=O)Nc2cn3cc(-c4cn[nH]c4)ccc3n2)cn1` [Cpd-2, 6-tert-butyl-N-(6-(1H-pyrazol-4-yl)imidazo[1,2-a]pyridin-2-yl)nicotinamide] yielded a GI50 in the test with COLO320DM cells of 600 nM. In test [1], the “concentration at which expression level of the alternatively spliced S6K mRNAs was highest” value fell in the range of 1.1 to 3.3 µM and the Rc0.1 was 0.3 µM. Moreover, inhibition on SRPK3 was half-maximal at 230 nM (IC50). This molecule also registered a GI50 with MDA-MB-468 cells of 3000 nM. Besides, on CLK2, the IC50 stood at 2.4 nM and the “activity for CLK2 relative to Cpd-1” value was found to be 10 fold.

Take `CC(C)(CO)c1ccc(C(=O)Nc2cn3cc(-c4cn[nH]c4)ccc3n2)cc1` [Cpd-3, 4-(1-hydroxy-2-methylpropan-2-yl)-N-(6-(1H-pyrazol-4-yl)imidazo[1,2-a]pyridin-2-yl)benzamide]: the GI50 in the test on COLO320DM cells was found to be 1500 nM; with MDA-MB-468 cells, 3400 nM. For the same molecule, the “concentration at which expression level of the alternatively spliced S6K mRNAs was highest” value in test [1] lay in the range of 1.1 to 3.3 µM. Further, in test [1], the Rc0.1 was found to be 0.5 µM. In addition, the IC50 against SRPK3 is 260 nM; at CLK2, 2.1 nM. The “inhibition of Aurora kinase A in kinase panel” value at Aurora kinase A was “moderately inhibited”. The “activity for CLK2 relative to Cpd-1” value at CLK2 was 10 fold.

What is called GI50 is the concentration giving 50% growth inhibition. What is called IC50 is the concentration that inhibits the measured activity by half. High values mean weaker potency, low ones greater potency.

The values are drawn from article PMC4291223, “Inhibitors of CLK Protein Kinases Suppress Cell Growth and Induce Apoptosis by Modulating Pre-mRNA Splicing” (PLoS ONE, 2015).
